One experiment deals with Collagen type I (Homo sapiens, UniProt P02452+P08123). The following applies: binds to Collagen type I; Note 1 of Table 2; cited from earlier work.
For experiment [1], the system named is fibronectin. Nature of the experiment: EDANS linker peptide binding to fibronectin-coated magnetic beads. The following applies: peptides 20 μM. As to the method: (§1) A series of peptides comprising an MMP cleavable site with or without the addition of a targeting sequence were synthesized and conjugated to the fluorophore EDANS (5-((2-Aminoethyl)amino)naphthalene-1-sulfonic acid) (custom synthesis, ThermoFisher). […] These peptides were then tested for their ability to bind ECM proteins such as heparin, fibronectin and collagen which are found in abundance in tumor stroma.
(§2) For fibronectin and collagen binding peptide assays, streptavidin coupled magnetic beads (Mag Sepharose, Cytiva and Dynabeads, ThermoFisher, respectively) were first incubated with biotin-labelled fibronectin (Cytoskeleton) or biotin-labelled collagen IV (Prospec) for 1 hour with gentle shaking. Following multiple washes, the ECM-coated beads were then incubated with Edans Peptides (20 μM) for 2 hours at room temperature with shaking in neutral or acidic binding buffer. Beads were then washed and resuspended in 100 μL of binding buffer in a black 96-well plate. Peptide binding was quantified by measuring the fluorescence of samples using excitation/emission spectra of EDANS (Ex 340/Em 490).

The conditions of experiment [2]: pH-sensitive targeting sequences; cited from earlier work.
Experiment [3] is classed as binding. To be noted: compared with IL-15Rα-IL-15 fusion protein. The procedure:
96-well plates were coated with 10 μg/mL of Heparin-BSA conjugate (provided by Dr. Mueller, Boerhinger Ingelheim) or control BSA for 18-22 hours at room temperature on shaker (350 rpm). After washing, wells are blocked with 2% milk powder in PBS-0.05% Tween 20 or PBS-0.05% Tween 20/1% BSA for 90 minutes. The fusion proteins were then titrated in either 2% milk powder in PBS-0.05% Tween 20 or 1% BSA/PBS-0.05% Tween 20, pH 7.5 and/or pH 6, and added for 2 hours at room temperature with shaking. After washing, an anti-mouse IL-2 biotin-labelled detection antibody (JES6-5H4, ThermoFisher), anti-6×-His Tag HRP conjugate antibody (Invitrogen, 1 mg/mL, cat #MA1-21315-HRP), or anti-human IgG HRP conjugate antibody (SouthernBiotech) was added, and binding was detected using Ultra Streptavidin HRP (ThermoFisher). The plate was developed by adding the chromogenic tetramethylbenzidine substrate (Ultra TMB, ThermoFisher). The reaction was stopped by addition of 0.5 M H2SO4, and the absorbance was read at 450-650 nm. […] Moreover, when the same pH-dependent heparin binding motif was inserted into different locations of IL-2 fusion proteins, all resulting proteins bound heparin at pH 6 with similar high affinities (FIGS. 4F and 4G). Likewise, similar binding affinities were observed when another heparin targeting sequence was engineered into different sites of IL-2 fusion proteins (FIGS. 4H-4I). […]

In experiment [4] the target is fibronectin (Homo sapiens, UniProt P02751). To be noted: derived from thrombospondin, cited from earlier work; for Note 1: affinity (binds to Fibronectin): pH-sensitive targeting sequences.
For experiment [5], the system named is Heparan sulfate proteoglycans. The following applies: DTx protein derived sequences; cited from earlier work.
A further experiment concerns the target T1, collagen IV (Homo sapiens, UniProt P02462+P08572).
T1 construct: purchased Prospec
Briefly: EDANS linker peptide binding to collagen IV-coated magnetic beads. To be noted: peptides 20 μM, 2 hours. As to the method: as §1, §2

Experiment [6] deals with MC38 colorectal cancer cells. Briefly: MC38 colorectal cancer tumor growth inhibition study. In kind it is in vivo, C57BL/6 mice. To be noted: low dose (1 mg/kg IP BIW). The procedure: C57BL/6 mice were subcutaneously inoculated with MC38 colorectal cancer cells. When the average tumor volume reached 70-90 mm^3, animals were randomized into 10 groups based on tumor volumes (n 7 or 6 mice per treatment group).
Tumor volumes were measured twice a week for the duration of the study.

Where no end group is shown, it is not given here. The star is where a group is joined. EDANS = O=S(=O)(O)c1cccc2c(NCCN*)cccc12 A value given as a limit tells only on which side of the number the result lay.

fibronectin (Homo sapiens, UniProt P02751), sequence (P02751 32-2477, species assumed): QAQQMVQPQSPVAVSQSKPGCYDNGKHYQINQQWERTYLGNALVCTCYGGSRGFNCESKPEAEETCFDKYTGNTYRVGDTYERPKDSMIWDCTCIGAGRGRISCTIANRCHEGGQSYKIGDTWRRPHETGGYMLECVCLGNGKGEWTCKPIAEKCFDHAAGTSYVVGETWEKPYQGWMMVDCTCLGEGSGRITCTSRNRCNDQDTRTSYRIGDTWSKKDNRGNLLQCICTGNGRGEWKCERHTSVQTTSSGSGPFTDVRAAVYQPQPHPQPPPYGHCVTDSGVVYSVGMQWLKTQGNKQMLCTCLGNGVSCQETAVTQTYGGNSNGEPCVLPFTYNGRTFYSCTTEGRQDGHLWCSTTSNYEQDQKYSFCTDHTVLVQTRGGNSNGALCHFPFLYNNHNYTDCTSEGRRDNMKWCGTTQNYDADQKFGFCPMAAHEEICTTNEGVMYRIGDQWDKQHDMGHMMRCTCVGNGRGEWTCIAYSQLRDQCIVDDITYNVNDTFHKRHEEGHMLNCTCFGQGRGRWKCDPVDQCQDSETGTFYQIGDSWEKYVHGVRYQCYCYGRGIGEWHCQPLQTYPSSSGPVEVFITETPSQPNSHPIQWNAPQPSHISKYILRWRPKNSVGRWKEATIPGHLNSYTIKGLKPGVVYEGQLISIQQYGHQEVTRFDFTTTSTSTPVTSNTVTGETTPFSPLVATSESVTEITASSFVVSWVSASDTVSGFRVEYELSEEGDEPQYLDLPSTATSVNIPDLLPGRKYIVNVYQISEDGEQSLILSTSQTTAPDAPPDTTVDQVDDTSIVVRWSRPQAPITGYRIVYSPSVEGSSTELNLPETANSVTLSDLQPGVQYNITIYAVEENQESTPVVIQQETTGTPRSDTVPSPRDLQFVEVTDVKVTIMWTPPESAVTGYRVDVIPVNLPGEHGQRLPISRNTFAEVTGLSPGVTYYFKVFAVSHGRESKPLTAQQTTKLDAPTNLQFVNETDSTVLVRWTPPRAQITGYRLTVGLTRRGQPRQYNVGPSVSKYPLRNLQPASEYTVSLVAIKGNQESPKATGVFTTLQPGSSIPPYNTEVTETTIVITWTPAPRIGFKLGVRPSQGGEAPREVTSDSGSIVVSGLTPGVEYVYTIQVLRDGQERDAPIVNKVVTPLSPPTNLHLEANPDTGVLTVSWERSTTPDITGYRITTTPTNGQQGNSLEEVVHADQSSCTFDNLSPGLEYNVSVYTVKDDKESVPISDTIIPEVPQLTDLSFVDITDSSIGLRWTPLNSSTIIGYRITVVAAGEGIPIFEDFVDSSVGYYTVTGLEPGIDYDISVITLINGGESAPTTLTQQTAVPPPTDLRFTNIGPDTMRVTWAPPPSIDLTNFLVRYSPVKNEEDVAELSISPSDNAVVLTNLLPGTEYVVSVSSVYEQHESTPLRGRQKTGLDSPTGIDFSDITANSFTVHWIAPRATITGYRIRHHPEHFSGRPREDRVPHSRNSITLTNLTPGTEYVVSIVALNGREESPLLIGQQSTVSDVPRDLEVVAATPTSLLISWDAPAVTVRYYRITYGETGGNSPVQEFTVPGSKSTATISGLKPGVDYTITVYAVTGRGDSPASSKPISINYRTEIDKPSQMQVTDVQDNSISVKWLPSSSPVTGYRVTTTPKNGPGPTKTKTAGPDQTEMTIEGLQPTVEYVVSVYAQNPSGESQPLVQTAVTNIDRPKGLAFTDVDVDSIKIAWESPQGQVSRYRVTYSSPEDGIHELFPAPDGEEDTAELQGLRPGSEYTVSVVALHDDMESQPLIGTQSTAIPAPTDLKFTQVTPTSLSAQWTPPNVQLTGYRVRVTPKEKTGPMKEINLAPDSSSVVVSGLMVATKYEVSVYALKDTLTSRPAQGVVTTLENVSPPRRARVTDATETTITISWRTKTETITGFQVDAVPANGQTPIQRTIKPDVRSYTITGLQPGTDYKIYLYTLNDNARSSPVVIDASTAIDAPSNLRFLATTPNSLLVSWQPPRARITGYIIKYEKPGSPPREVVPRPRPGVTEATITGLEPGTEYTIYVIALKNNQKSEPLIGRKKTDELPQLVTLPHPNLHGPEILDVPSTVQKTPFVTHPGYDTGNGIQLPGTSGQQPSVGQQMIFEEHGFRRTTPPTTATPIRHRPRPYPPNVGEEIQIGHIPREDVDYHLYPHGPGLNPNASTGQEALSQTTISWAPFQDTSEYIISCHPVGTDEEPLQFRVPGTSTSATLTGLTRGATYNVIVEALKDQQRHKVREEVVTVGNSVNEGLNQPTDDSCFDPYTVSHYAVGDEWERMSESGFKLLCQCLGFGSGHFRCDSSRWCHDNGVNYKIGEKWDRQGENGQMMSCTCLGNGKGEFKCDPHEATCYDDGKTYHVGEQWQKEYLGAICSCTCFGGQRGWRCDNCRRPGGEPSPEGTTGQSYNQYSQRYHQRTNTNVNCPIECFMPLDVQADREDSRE
Collagen type I, sequence (P02452 162-1218 limits assumed): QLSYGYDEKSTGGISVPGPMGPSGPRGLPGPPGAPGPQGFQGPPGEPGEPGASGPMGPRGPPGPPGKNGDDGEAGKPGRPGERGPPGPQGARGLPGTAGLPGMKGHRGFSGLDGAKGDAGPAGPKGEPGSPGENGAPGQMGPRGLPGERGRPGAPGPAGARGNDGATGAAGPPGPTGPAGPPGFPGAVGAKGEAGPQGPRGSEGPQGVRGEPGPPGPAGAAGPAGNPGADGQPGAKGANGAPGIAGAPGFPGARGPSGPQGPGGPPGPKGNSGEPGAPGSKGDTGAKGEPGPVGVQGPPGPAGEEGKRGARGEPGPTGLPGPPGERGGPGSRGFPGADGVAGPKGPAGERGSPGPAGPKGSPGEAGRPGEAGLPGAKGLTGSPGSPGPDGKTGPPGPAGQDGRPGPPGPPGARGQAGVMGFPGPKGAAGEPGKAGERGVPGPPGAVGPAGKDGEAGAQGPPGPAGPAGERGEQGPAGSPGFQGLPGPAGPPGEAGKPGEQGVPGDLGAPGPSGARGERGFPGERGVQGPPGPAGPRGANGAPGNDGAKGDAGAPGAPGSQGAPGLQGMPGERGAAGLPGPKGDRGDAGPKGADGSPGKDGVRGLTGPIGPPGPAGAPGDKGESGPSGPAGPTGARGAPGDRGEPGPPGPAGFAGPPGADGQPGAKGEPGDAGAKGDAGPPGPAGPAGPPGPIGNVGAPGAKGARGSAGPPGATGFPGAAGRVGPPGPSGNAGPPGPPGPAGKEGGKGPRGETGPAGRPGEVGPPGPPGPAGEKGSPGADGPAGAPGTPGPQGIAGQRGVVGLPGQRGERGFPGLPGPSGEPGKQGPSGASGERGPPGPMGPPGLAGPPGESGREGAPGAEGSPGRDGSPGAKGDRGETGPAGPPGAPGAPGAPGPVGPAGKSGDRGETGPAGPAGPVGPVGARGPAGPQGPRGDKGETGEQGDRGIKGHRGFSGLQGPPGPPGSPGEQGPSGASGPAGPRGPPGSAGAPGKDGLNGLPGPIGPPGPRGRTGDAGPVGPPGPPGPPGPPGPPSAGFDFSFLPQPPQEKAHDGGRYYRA
Collagen type I, sequence (P08123 80-1119 limits assumed): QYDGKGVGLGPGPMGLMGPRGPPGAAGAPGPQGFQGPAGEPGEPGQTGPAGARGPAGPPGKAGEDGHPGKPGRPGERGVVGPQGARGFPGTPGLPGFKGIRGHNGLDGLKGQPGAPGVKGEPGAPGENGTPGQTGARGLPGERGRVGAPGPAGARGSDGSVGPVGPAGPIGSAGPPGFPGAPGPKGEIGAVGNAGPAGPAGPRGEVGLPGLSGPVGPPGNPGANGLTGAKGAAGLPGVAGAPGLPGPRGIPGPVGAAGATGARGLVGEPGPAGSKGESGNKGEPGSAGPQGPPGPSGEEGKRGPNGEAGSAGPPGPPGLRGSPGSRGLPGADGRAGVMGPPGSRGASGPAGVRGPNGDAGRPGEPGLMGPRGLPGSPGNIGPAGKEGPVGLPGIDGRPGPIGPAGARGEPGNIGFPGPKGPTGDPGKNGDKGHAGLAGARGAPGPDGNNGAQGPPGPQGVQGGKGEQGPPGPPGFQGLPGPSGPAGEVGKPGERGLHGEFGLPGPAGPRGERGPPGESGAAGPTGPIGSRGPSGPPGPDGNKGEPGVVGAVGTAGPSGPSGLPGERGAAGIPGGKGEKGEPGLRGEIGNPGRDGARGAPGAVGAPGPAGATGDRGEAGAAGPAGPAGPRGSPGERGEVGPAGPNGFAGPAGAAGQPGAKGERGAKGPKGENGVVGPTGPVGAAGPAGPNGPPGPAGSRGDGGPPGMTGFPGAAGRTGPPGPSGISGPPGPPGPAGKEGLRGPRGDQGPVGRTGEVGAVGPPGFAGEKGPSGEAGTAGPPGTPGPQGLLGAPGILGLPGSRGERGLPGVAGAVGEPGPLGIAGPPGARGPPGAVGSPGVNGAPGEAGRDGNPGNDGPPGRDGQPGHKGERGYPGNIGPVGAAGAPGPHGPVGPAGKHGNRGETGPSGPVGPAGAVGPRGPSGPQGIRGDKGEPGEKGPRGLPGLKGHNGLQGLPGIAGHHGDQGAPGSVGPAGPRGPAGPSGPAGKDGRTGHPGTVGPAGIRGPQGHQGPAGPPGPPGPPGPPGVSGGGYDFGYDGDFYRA

As to “194 (TKKTLRT; Synthetic: Collagen type I) [Construct 194]”, the Kd (as a rule, a measure of binding affinity in units of concentration) in the experiment with Collagen type I is at most 100000 nM.

In the case of “peptide 13: EDANS-conjugated GGGWSHWGPLGVRG-* (SEQ ID NO: 671); pH dependent fibronectin (GGGWSHWGPLGVRG-{EDANS})”, the “peptide binding to fibronectin at pH 6 vs. pH 7.5” value in the experiment with fibronectin [1] is “enhanced binding at pH 6”. For the same substance, the “peptide binding to fibronectin (EDANS fluorescence)” value in the experiment with fibronectin [1] (2 hours) is listed as “able to bind fibronectin”.

Turning to “642 (KHAHLKKQVSDHIAVY; Synthetic: Heparin; binds to heparin at low pH (high affinity)) [Construct 642]”, in experiment [2], the “Note 1: binds to heparin at low pH (affinity)” value (“Note 1: binds to heparin” below) is given as “binds to heparin at low pH (high affinity)”.

On to “192 (LRELHLNNN; Synthetic: Collagen type I) [Construct 192]”, for which, in the experiment with Collagen type I, the Kd was 170 nM.

As for “649 (GGKVEHRVKKRPPTWRHNVRAKYT; Synthetic: Heparin; binds to heparin at low pH) [Construct 649]”, in experiment [2], the “Note 1: binds to heparin” value is “binds to heparin at low pH”.

In the case of “646 (TTEPSEEHNHHKHHDK; Synthetic: Heparin; binds to heparin at low pH (lower affinity)) [Construct 646]”, in experiment [2], the “Note 1: binds to heparin” value is recorded as “binds to heparin at low pH (lower affinity)”.

With “647 (HKGQHR; Synthetic: Heparin; binds to heparin at low pH (lower affinity)) [Construct 647]”, the “Note 1: binds to heparin” value in experiment [2] is “binds to heparin at low pH (lower affinity)”.

On to “Construct VVV: huIL15Ra(1-77)-linker-huIL15-(SG3)-GPLGVRG-4x(G4S)-IL2Rb(1-214)-6xHis; no TME”, for which the “heparin binding of IL-15 linker polypeptide fusion proteins” value in experiment [3] was “lost”.

With “648 (KVEHRVKKRPPTWRHNVRAKYT; Synthetic: Heparin; binds to heparin at low pH) [Construct 648]”, the “Note 1: binds to heparin” value in experiment [2] is listed as “binds to heparin at low pH”.

Regarding “197 (HVWMQAPGGGK; Synthetic: Collagen type I, H-v-F/W-Q/ M-Q-P/A-P/K motif) [Construct 197]”, in the experiment with Collagen type I, the dissociation constant Kd was 61000 nM.

Take “653 (GGWSHW; Synthetic: Fibronectin; derived from thrombospondin (highest affinity)) [Construct 653]”: in the experiment with fibronectin [4], the “Note 2: pH dependence of binding to Fibronectin” value was “binds better at lower pH” and the “Note 1: affinity (binds to Fibronectin)” value is given as “(highest affinity)”.

For the substance “639 (NGRKIRMRCRAIDGD; Synthetic: Heparan sulfate proteoglycans ; binds to HSGP with high affinity (DTx protein)) [Construct 639]”, in experiment [5], the “Note 1: binds to HSGP, affinity” value is “binds to HSGP with high affinity (DTx protein)”.

On to “640 (DVIRDKTKTKIESLK; Synthetic: Heparan sulfate proteoglycans ; binds to HSGP with low affinity (DTx protein)) [Construct 640]”, for which the “Note 1: binds to HSGP, affinity” value in experiment [5] is on record as “binds to HSGP with low affinity (DTx protein)”.

Take “655 (KRFKQDGGWSHWSP; Synthetic: Fibronectin; derived from thrombospondin (medium affinity)) [Construct 655]”: the “Note 1: affinity (binds to Fibronectin)” value in the experiment with fibronectin [4] is on record as “derived from thrombospondin (medium affinity)”.

As to “643 (TTEPSEEHNHHK; Synthetic: Heparin; binds to heparin at low pH (low affinity)) [Construct 643]”, in experiment [2], the “Note 1: binds to heparin” value is “binds to heparin at low pH (low affinity)”.

As for “191 (MIVIELGTNPLKSSGIENGAFQGMKK; Synthetic: Collagen type I) [Construct 191]”, in the experiment with Collagen type I, the Kd was 394 nM.

Turning to “656 (GGWSHWSPWSS; Synthetic: Fibronectin; derived from thrombospondin (medium affinity)) [Construct 656]”, in the experiment with fibronectin [4], the “Note 1: affinity (binds to Fibronectin)” value is reported as “derived from thrombospondin (medium affinity)”.

Regarding “644 (KHAHL; Synthetic: Heparin; binds to heparin at low pH (lower affinity)) [Construct 644]”, in experiment [2], the “Note 1: binds to heparin” value is recorded as “binds to heparin at low pH (lower affinity)”.

For the substance “peptide 15: EDANS-conjugated GGGSGLHERHLNNN-* (SEQ ID NO: 673); Collagen I (GGGSGLHERHLNNN-{EDANS})”, the “peptide binding to collagen IV (EDANS fluorescence)” value in the experiment with collagen IV is listed as “bound to a lesser extent”.

Turning to “645 (TTEPSEEHNHHK; Synthetic: Heparin; binds to heparin at low pH (lower affinity)) [Construct 645]”, the “Note 1: binds to heparin” value in experiment [2] is given as “binds to heparin at low pH (lower affinity)”.

Take “190 (RRANAALKAGELYKCILYGC; Synthetic: Collagen type I) [Construct 190]”: the dissociation constant Kd in the experiment with Collagen type I was 10 nM.

On to “189 (RRANAALKAGELYKSILYGC; Synthetic: Collagen type I) [Construct 189]”, for which, in the experiment with Collagen type I, the Kd was 860 nM.

On to “650 (KKRPPTWRHNV; Synthetic: Heparin; binds to heparin at low pH) [Construct 650]”, for which the “Note 1: binds to heparin” value in experiment [2] is “binds to heparin at low pH”.

In the case of “peptide 14: EDANS-conjugated KLWVLPKGPLGVRG-* (SEQ ID NO: 672); Collagen IV (KLWVLPKGPLGVRG-{EDANS})”, in the experiment with collagen IV, the “peptide binding to collagen IV (EDANS fluorescence)” value is “strongly bound”.

Turning to “195 (CPKESCNLFVLKD; Synthetic: Collagen type I) [Construct 195]”, in the experiment with Collagen type I, the dissociation constant (Kd) was 681 nM.

For the substance “Construct WWW: huIL15Ra(1-77)-linker-huIL15-(SG3)-GPLGVRG-gsVRIQRKKEKMKET-3x(G4S)-IL2Rb(1-214)-6xHis”, the “heparin binding of IL-15 linker polypeptide fusion proteins” value in experiment [3] is reported as “recovered”.

Regarding “Construct NNN: huIL2(C125S)-SGGKLWVLPK-MMPcs1-2x(G4S)-huIL2Ra(1-219;M25I)-GSGGGG-huIgG1(LALA); col IV”, the “efficacy (TGI) in low dose treatment groups” value in experiment [6] is on record as “superior efficacy over parental non-targeting constructs”.

These data come from patent US20240417437A1, “Linker Polypeptides” (Trutino Biosciences Inc., priority 2021, published 2024).
